Measured values reported in patent US9856279B2 (AGIOS PHARMACEUTICALS, INC, priority 2011, dated 2018).

Tests used:
U87MG cells = test: Cellular assay for IDH1m inhibitors: inhibition of 2-HG production (LC-MS, 48 hours) in U87MG cells; type: cell-based; details: Homo sapiens, U-87 MG, inhibition of 2-HG production, U87R132H cells; read-out: U87R132H IC50
How it was run: (§1)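 HT1080 or U87MG cells were seeded at 5000/well in DMEM with 10% FBS, incubated overnight, then treated with compounds (0.2% DMSO final) for 48 h. Medium 2-HG was quantified by LC-MS, and IC50 was taken as the concentration reducing 2-HG by 50% versus DMSO control.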

IDH1 R132H = IDH1 R132H (Homo sapiens, UniProt O75874, R132H); test: Assay for IDH1 R132H inhibitors (NADPH/aKG, resazurin detection); type: biochemical; details: enzyme assay of Example 12; read-out: IDH1R132H IC50
IDH1 R132H, sequence (O75874 whole entry R132H): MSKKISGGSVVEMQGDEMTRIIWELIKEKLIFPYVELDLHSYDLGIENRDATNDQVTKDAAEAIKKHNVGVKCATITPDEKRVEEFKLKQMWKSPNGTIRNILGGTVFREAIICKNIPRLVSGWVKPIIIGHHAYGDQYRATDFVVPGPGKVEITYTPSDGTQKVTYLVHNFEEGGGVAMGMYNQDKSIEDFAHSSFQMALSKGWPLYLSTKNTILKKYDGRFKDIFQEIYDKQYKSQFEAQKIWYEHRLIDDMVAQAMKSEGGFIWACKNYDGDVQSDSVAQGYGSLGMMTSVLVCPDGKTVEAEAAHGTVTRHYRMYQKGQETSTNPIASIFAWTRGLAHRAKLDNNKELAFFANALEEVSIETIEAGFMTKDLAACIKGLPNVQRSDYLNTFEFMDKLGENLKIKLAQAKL
How it was run: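 Compound added to substrate mix (8 uM NADPH, 2 mM aKG), then enzyme mix (0.2 μg/ml IDH1 R132H); 50 min RT in 20 mM Tris pH 7.5, 150 mM NaCl, 10 mM MgCl2, 0.03% BSA. Resazurin detection mix (30 μM) 5 min RT; resorufin fluorescence Ex544/Em590.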

HT1080 cells = test: Cellular assay for IDH1m inhibitors: inhibition of 2-HG production (LC-MS, 48 hours) in HT1080 cells; type: cell-based; details: Homo sapiens, HT-1080; inhibition of 2-HG production, HT1080 cells; read-out: HT1080 IC50
How it was run: as §1

SMILES	IC50 (U87MG cells)	IC50 (IDH1 R132H)	IC50 (HT1080 cells)
COCCC(=O)N1CCN(c2nc(C3CC3)c(-c3ccc4c(c3)NC(=O)C4)cc2C#N)C[C@H]1C [Compound 313, (R)-6-cyclopropyl-2-(4-(3-methoxypropanoyl)-3-methylpiperazin-1-yl)-5-(2-oxoindolin-6-yl)nicotinonitrile]	500 to 1000 nM	< 500 nM	1000 to 10000 nM
C=CS(=O)(=O)Nc1cccc(-c2c(C3CC3)nc(N3CCN(C(=O)C4CC4)[C@H](C4CC4)C3)c(C#N)c2C)c1 [Compound 470, (R)—N-(3-(5-cyano-6-(4-(cyclopropanecarbonyl)-3-cyclopropylpiperazin-1-yl)-2-cyclopropyl-4-methylpyridin-3-yl)phenyl)ethenesulfonamide]	1000 to 10000 nM	< 500 nM	1000 to 10000 nM
C[C@@H]1CN(c2nc(C3CC3)c(-c3ccc(F)cc3)cc2C#N)CCN1C(=O)C1CC1 [Compound 550, (R)-2-(4-(cyclopropanecarbonyl)-3-methylpiperazin-1-yl)-6-cyclopropyl-5-(4-fluorophenyl)nicotinonitrile]	< 500 nM	500 to 1000 nM	< 500 nM
C=Cc1cc(-c2cc(C#N)c(N3CCN(C(=O)CCOC)[C@H](C)C3)nc2C2CC2)c2cccnc2n1 [Compound 599, (R)-6-cyclopropyl-2-(4-(3-methoxypropanoyl)-3-methylpiperazin-1-yl)-5-(2-vinyl-1,8-naphthyridin-4-yl)nicotinonitrile]	< 500 nM	< 500 nM	< 500 nM
CCO[C@@H]1C[C@@H]1C(=O)N1CCN(c2nc(C3CC3)c(-c3cccc4cnccc34)cc2C#N)C[C@H]1C1CC1 [Compound 526, 6-cyclopropyl-2-((R)-3-cyclopropyl-4-((1S,2R)-2-ethoxycyclopropanecarbonyl)piperazin-1-yl)-5-(isoquinolin-5-yl)nicotinonitrile]	< 500 nM	500 to 1000 nM	< 500 nM
C#CC(=O)Nc1cccc(-c2cc(C#N)c(N3CCN(C(=O)CCOC)[C@H](C)C3)nc2C2CC2)c1 [Compound 428, (R)—N-(3-(5-cyano-2-cyclopropyl-6-(4-(3-methoxypropanoyl)-3-methylpiperazin-1-yl)pyridin-3-yl)phenyl)propiolamide]	500 to 1000 nM	< 500 nM	< 500 nM
C=C(F)C(=O)Nc1cccc(-c2cc(C#N)c(N3CCN(C(=O)CCOC)[C@H](C)C3)nc2C2CC2)c1 [Compound 431, (R)—N-(3-(5-cyano-2-cyclopropyl-6-(4-(3-methoxypropanoyl)-3-methylpiperazin-1-yl)pyridin-3-yl)phenyl)-2-fluoroacrylamide]	500 to 1000 nM	500 to 1000 nM	500 to 1000 nM
C=Cc1cc(-c2cc(C#N)c(N3CCN(C(=O)CC(C)O)[C@H](C4CC4)C3)nc2C2CC2)ccn1 (stereo partly drawn) [Compound 568, 2-cyclopropyl-6-((3R)-3-cyclopropyl-4-(3-hydroxybutanoyl)piperazin-1-yl)-2′-vinyl-3,4′-bipyridine-5-carbonitrile]	< 500 nM	< 500 nM	< 500 nM
COCCC(=O)N1CCN(c2nc(C3CC3)c(-c3ccccc3OC(F)(F)F)cc2C#N)C[C@H]1C(C)C [Compound 276, (R)-6-cyclopropyl-2-(3-isopropyl-4-(3-methoxypropanoyl)piperazin-1-yl)-5-(2-(trifluoromethoxy)phenyl)nicotinonitrile]	1000 to 10000 nM	< 500 nM	1000 to 10000 nM
COCCC(=O)N1CCN(c2nc(C3CC3)c(-c3cccc(N)c3)cc2C#N)C[C@H]1C [Compound 285, (R)-5-(3-aminophenyl)-6-cyclopropyl-2-(4-(3-methoxypropanoyl)-3-methylpiperazin-1-yl)nicotinonitrile]	1000 to 10000 nM	< 500 nM	500 to 1000 nM

Second part, the compound after the results:

IC50 (U87MG cells)	IC50 (IDH1 R132H)	IC50 (HT1080 cells)	SMILES
< 500 nM	< 500 nM	< 500 nM	C=CC(=O)N1CCC=C(c2cc(C#N)c(N3CCN(C(=O)COC)[C@H](C4CC4)C3)nc2C2CC2)C1 [Compound 728, (R)-5-(1-acryloyl-1,2,5,6-tetrahydropyridin-3-yl)-6-cyclopropyl-2-(3-cyclopropyl-4-(2-methoxyacetyl)piperazin-1-yl)nicotinonitrile]
< 500 nM	< 500 nM	< 500 nM	C=Cc1cnnc(-c2c(C3CC3)nc(N3CCN(C(=O)CCO)[C@H](C(C)C)C3)c(C#N)c2C)c1 [Compound 784, (R)-6-cyclopropyl-2-(4-(3-hydroxypropanoyl)-3-isopropylpiperazin-1-yl)-4-methyl-5-(5-vinylpyridazin-3-yl)nicotinonitrile]
< 500 nM	< 500 nM	< 500 nM	C=Cc1cc(-c2cc(C#N)c(N3CCN(C(=O)CCO)[C@H](C(C)C)C3)nc2C2CC2)c2cccnc2n1 [Compound 629, (R)-6-cyclopropyl-2-(4-(3-hydroxypropanoyl)-3-isopropylpiperazin-1-yl)-5-(2-vinyl-1,8-naphthyridin-4-yl)nicotinonitrile]
< 500 nM	< 500 nM	< 500 nM	C=Cc1cc(-c2c(C3CC3)nc(N3CCN(C(=O)CC4CCCO4)[C@H](C4CC4)C3)c(C#N)c2C)ccn1 (stereo partly drawn) [Compound 805, 2-cyclopropyl-6-((3R)-3-cyclopropyl-4-(2-(tetrahydrofuran-2-yl)acetyl)piperazin-1-yl)-4-methyl-2′-vinyl-[3,4′-bipyridine]-5-carbonitrile]
< 500 nM	< 500 nM	< 500 nM	C=Cc1cc(Nc2cc(C#N)c(N3CCN(C(=O)C[C@H]4CCO4)[C@H](C4CC4)C3)nc2C2CC2)ccn1 [Compound 751, 6-cyclopropyl-2-((R)-3-cyclopropyl-4-(2-((R)-oxetan-2-yl)acetyl)piperazin-1-yl)-5-(2-vinylpyridin-4-ylamino)nicotinonitrile]
< 500 nM	< 500 nM	< 500 nM	C=Cc1cnnc(-c2c(C3CC3)nc(N3CCN(C(=O)CCO)[C@H](C4CC4)C3)c(C#N)c2C)c1 [Compound 767, (R)-6-cyclopropyl-2-(3-cyclopropyl-4-(3-hydroxypropanoyl)piperazin-1-yl)-4-methyl-5-(5-vinylpyridazin-3-yl)nicotinonitrile]
< 500 nM	< 500 nM	< 500 nM	C=Cc1cc(-c2c(C3CC3)nc(N3CCN(C(=O)C[C@H]4CCO4)[C@H](C(C)C)C3)c(C#N)c2C)ccn1 [Compound 781, 2-cyclopropyl-6-((R)-3-isopropyl-4-(2-((R)-oxetan-2-yl)acetyl)piperazin-1-yl)-4-methyl-2′-vinyl-3,4′-bipyridine-5-carbonitrile]
1000 to 10000 nM	< 500 nM	1000 to 10000 nM	C=CC(=O)N(c1ccncc1)c1cc(C#N)c(N2CCN(C(=O)CCOC)[C@H](C)C2)nc1C1CC1 [Compound 702, (R)—N-(5-cyano-2-cyclopropyl-6-(4-(3-methoxypropanoyl)-3-methylpiperazin-1-yl)pyridin-3-yl)-N-(pyridin-4-yl) acryl amide]
< 500 nM	< 500 nM	< 500 nM	C=Cc1cc(-c2cc(C#N)c(N3CCN(C(=O)COC)[C@H](C(C)C)C3)nc2C2CC2)ccn1 [Compound 726, (R)-2-cyclopropyl-6-(3-isopropyl-4-(2-methoxyacetyl)piperazin-1-yl)-2′-vinyl-3,4′-bipyridine-5-carbonitrile]
